This note sets out measurements from patent US20230150974A1 (Foghorn Therapeutics Inc., priority 2020, published 2023).

One experiment deals with T1, HiBiT-BRM (Homo sapiens, UniProt P51531).
T1 construct: expressed in transfected cells
Put plainly: HiBiT-BRM cell-based degradation assay (Nano-Glo HiBiT Lytic Detection). To be noted: HeLa cells expressing HiBiT-BRM, 24 h; for DC50: read-out: BRM HiBit Degradation IC50. In outline: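 HeLa cells stably expressing HiBiT-tagged BRM were treated for 24 h, then lysed with LgBiT-containing Nano-Glo reagent and luminescence read. % degradation scaled between DMSO (high control) and 2 μM reference BRM/BRG1 degrader (low control).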

Another experiment concerns the target T2, HiBit-BRG1 (Homo sapiens, UniProt P51532).
T2 construct: expressed in transfected cells
In words: HiBit-BRG1 cell-based degradation assay (Nano-Glo HiBiT Lytic Detection). To be noted: HeLa cells expressing HiBit-BRG1 and LgBit, 24 h; for DC50: read-out: BRG1 HiBit Degradation IC50; for Dmax: read-out: BRG1 HiBit Degradation Maximum (%). The essentials: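 HeLa cells stably expressing HiBiT-BRG1 plus LgBit, 5000/well, treated 24 h, then lysed with Nano-Glo HiBiT lytic reagent and luminescence read. % degradation normalised between DMSO (high control) and 2 μM reference BRM/BRG1 degrader (low control).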
For orientation: With HiBiT, luminescence reflects the tagged protein that the partner subunit can reach.

SMILES strings stand for the structures. Structures can show the parent of a compound that is named as a salt.

T1 sequence (P51531 whole entry): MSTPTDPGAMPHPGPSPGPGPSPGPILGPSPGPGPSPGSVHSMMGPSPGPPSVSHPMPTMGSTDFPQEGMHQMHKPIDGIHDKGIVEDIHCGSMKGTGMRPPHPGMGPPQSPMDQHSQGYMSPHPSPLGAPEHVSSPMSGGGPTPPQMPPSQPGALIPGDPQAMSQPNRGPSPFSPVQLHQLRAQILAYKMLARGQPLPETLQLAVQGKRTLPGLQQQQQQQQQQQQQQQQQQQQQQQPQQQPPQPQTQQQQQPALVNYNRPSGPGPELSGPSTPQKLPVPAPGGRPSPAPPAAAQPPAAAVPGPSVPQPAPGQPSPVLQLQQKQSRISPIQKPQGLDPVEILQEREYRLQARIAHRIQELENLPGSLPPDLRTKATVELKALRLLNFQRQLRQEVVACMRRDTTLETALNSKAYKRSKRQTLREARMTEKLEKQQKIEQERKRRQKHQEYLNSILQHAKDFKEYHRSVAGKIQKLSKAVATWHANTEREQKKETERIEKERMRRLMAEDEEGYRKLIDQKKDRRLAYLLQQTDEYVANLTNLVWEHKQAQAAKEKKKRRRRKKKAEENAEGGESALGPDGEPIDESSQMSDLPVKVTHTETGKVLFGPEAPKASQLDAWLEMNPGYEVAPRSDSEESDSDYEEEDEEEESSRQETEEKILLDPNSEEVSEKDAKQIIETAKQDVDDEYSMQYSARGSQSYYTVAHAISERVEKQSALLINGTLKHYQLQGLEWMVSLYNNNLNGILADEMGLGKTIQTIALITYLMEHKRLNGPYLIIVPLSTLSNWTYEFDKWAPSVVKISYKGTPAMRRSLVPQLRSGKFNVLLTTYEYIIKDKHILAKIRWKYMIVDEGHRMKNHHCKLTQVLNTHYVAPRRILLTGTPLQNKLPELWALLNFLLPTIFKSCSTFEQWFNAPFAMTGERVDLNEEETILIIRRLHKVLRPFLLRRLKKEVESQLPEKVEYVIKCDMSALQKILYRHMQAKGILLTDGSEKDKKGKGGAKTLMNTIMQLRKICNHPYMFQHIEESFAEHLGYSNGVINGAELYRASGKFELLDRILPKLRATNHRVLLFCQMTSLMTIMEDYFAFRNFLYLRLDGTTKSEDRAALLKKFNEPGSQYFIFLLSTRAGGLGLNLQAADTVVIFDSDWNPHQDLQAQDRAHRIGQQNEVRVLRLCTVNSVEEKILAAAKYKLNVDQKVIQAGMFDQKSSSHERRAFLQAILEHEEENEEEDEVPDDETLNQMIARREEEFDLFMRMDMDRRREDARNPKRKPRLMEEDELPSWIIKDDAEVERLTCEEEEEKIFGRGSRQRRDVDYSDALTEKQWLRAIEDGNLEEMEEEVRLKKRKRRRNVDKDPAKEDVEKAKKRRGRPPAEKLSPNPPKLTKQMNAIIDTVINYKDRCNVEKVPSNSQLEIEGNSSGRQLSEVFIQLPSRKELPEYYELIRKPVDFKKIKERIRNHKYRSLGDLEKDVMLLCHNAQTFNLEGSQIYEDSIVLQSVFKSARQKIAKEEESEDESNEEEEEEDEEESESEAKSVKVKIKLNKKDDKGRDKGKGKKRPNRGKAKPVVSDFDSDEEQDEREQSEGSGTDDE
T2 sequence (P51532 whole entry): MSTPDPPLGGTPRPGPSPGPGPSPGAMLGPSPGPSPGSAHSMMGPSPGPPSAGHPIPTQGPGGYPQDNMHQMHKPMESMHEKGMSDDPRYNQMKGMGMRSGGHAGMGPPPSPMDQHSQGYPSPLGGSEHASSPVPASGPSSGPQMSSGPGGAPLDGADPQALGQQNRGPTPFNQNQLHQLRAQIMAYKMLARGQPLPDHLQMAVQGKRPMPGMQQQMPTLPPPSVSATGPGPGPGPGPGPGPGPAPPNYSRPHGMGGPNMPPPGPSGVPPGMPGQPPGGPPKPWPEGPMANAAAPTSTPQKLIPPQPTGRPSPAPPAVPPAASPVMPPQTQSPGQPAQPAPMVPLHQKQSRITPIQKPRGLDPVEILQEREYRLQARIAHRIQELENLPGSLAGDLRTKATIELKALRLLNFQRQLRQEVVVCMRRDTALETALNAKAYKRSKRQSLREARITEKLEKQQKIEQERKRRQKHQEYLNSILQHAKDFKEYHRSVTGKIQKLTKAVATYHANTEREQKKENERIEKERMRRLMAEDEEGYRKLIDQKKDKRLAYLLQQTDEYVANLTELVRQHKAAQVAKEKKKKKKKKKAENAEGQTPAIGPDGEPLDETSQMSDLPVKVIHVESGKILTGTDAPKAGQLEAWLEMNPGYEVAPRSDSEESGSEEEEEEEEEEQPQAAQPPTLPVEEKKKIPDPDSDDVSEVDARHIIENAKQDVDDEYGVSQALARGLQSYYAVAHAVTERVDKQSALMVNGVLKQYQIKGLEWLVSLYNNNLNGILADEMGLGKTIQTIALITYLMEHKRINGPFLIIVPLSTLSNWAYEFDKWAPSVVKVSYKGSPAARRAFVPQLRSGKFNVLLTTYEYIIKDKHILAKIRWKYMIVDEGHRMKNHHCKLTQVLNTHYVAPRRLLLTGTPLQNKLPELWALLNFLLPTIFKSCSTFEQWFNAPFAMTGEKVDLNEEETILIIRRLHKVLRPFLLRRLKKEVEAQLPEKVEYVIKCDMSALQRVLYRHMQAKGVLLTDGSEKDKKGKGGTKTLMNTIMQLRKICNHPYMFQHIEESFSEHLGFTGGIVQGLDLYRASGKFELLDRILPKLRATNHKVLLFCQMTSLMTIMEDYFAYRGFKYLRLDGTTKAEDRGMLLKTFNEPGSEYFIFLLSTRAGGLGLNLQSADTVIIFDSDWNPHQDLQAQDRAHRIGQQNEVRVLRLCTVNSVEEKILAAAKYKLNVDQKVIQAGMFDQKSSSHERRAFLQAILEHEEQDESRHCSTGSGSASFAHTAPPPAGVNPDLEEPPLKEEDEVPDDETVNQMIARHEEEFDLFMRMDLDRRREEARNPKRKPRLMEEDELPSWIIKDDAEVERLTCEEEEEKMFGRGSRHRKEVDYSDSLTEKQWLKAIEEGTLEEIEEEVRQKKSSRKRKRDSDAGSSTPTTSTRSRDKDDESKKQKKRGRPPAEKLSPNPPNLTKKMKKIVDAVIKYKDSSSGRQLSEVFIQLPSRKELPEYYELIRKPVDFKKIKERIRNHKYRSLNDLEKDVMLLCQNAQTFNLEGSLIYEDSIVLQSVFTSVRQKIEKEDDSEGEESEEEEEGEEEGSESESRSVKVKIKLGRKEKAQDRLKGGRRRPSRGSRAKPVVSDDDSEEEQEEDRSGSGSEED

Turning to `Cc1ncsc1-c1ccc(CNC(=O)[C@@H]2C[C@@H](O)CN2C(=O)[C@@H](NC(=O)COCCOCCNC(=O)CN2CCN(c3cc(-c4ccccc4O)nnc3N)CC2)C(C)(C)C)cc1` [Compound 100, (2S,4R)-1-[(2S)-2-(2-[2-[2-(2-[4-[3-amino-6-(2-hydroxyphenyl)pyridazin-4-yl]piperazin-1-yl]acetamido)ethoxy]ethoxy]acetamido)-3,3-dimethylbutanoyl]-4-hydroxy-N-[[4-(4-methyl-1,3-thiazol-5-yl)phenyl]methyl]pyrrolidine-2-carboxamide], on HiBiT-BRM, the “BRM HiBit Degradation Maximum (%)” value is listed as “C (“C” indicates maximum degradation <50%)” and the DC50 is above 1 µM. In addition, at HiBit-BRG1, the DC50 is above 1 µM and the Dmax was below 50%.
Consider `Nc1nnc(-c2ccccc2O)cc1N1CCN(CCNC(=O)CCCCCCCCCCNc2ccc3c(c2)C(=O)N(C2CCC(=O)NC2=O)C3=O)CC1` (stereo not shown) [Compound 99, N-(2-[4-[3-amino-6-(2-hydroxyphenyl)pyridazin-4-yl]piperazin-1-yl]ethyl)-11-[[2-(2,6-dioxopiperidin-3-yl)-1,3-dioxo-2,3-dihydro-1H-isoindol-5-yl]amino]undecanamide], for which, at HiBiT-BRM, the “BRM HiBit Degradation Maximum (%)” value is “C (“C” indicates maximum degradation <50%)” and the DC50 was above 1 µM. On HiBit-BRG1, the DC50 is above 1 µM and the Dmax is below 50%.
As to `Cc1ncsc1-c1ccc(CNC(=O)[C@@H]2C[C@@H](O)CN2C(=O)[C@@H](NC(=O)CCN2CCN(CCC(=O)NCc3ccc(CCOc4cc(-c5ccccc5O)nnc4N)cc3)CC2)C(C)(C)C)cc1` [Compound 189, (2S,4R)-1-[(2S)-2-(3-[4-[2-([[4-(2-[[3-amino-6-(2-hydroxyphenyl)pyridazin-4-yl]oxy]ethyl)phenyl]methyl]carbamoyl)ethyl]piperazin-1-yl]propanamido)-3,3-dimethylbutanoyl]-4-hydroxy-N-[[4-(4-methyl-1,3-thiazol-5-yl)phenyl]methyl]pyrrolidine-2-carboxamide], at HiBiT-BRM, the “BRM HiBit Degradation Maximum (%)” value is given as “C (“C” indicates maximum degradation <50%)” and the DC50 was above 1 µM. Besides, at HiBit-BRG1, the DC50 was above 1 µM and the Dmax is below 50%.
Regarding `CN(CCCCCOc1cccc2c1C(=O)N(C1CCC(=O)NC1=O)C2=O)Cc1ccc(CCNc2cc(-c3ccccc3O)nnc2N)cc1` (stereo not shown) [Compound 150, 4-((5-((4-(2-((3-amino-6-(2-hydroxyphenyl)pyridazin-4-yl)amino)ethyl)benzyl)(methyl)amino)pentyl)oxy)-2-(2,6-dioxopiperidin-3-yl)isoindoline-1,3-dione, formic acid salt], on HiBiT-BRM, the “BRM HiBit Degradation Maximum (%)” value was “C (“C” indicates maximum degradation <50%)” and the DC50 was above 1 µM. At HiBit-BRG1, the DC50 was above 1 µM and the Dmax was below 50%.
Consider `Cc1ncsc1-c1ccc([C@H](C)NC(=O)[C@@H]2C[C@@H](O)CN2C(=O)[C@@H](c2cc(OCCN3CC(C4CN(C(=O)c5ccc(CCOc6cc(-c7ccccc7O)nnc6N)cc5)C4)C3)no2)C(C)C)cc1` [Compound 222, (2S,4R)-1-((R)-2-(3-(2-(1′-(4-(2-((3-amino-6-(2-hydroxyphenyl)pyridazin-4-yl)oxy)ethyl)benzoyl)-[3,3'-biazetidin]-1-yl)ethoxy)isoxazol-5-yl)-3-methylbutanoyl)-4-hydroxy-N-((S)-1-(4-(4-methylthiazol-5-yl)phenyl)ethyl)pyrrolidine-2-carboxamide], for which, on HiBiT-BRM, the “BRM HiBit Degradation Maximum (%)” value is on record as “A (“A” indicates maximum degradation ≥75%)” and the DC50 was above 0.1 µM. Also, on HiBit-BRG1, the DC50 was above 0.1 µM and the Dmax is above 75%.
For the compound `Nc1nnc(-c2ccccc2O)cc1OCCc1ccc(CNCCOc2cccc3c2C(=O)N(C2CCC(=O)NC2=O)C3=O)cc1` (stereo not shown) [Compound 115, 4-[2-([[4-(2-[[3-amino-6-(2-hydroxyphenyl)pyridazin-4-yl]oxy]ethyl)phenyl]methyl]amino)ethoxy]-2-(2,6-dioxopiperidin-3-yl)isoindole-1,3-dione], at HiBiT-BRM, the “BRM HiBit Degradation Maximum (%)” value is “C (“C” indicates maximum degradation <50%)” and the DC50 is above 1 µM. On HiBit-BRG1, the DC50 is above 1 µM and the Dmax is below 50%.
As for `Nc1nnc(-c2ccccc2O)cc1OCCc1ccc(C(=O)NCCCCCCCCNC(=O)COc2cccc3c2C(=O)N(C2CCC(=O)NC2=O)C3=O)cc1` (stereo not shown) [Compound 41, N-(8-[[4-(2-[[3-amino-6-(2-hydroxyphenyl)pyridazin-4-yl]oxy]ethyl)phenyl]formamido]octyl)-2-[[2-(2,6-dioxopiperidin-3-yl)-1,3-dioxoisoindol-4-yl]oxy]acetamide], at HiBiT-BRM, the “BRM HiBit Degradation Maximum (%)” value is on record as “C (“C” indicates maximum degradation <50%)” and the DC50 is above 1 µM. At HiBit-BRG1, the DC50 was above 1 µM and the Dmax is below 50%.
Turning to `Cc1ncsc1-c1ccc(CNC(=O)[C@@H]2C[C@@H](O)CN2C(=O)[C@@H](NC(=O)COCCOCCOCC(=O)NCc2ccc(CCOc3cc(-c4ccccc4O)nnc3N)cc2)C(C)(C)C)cc1` [Compound 38, (2S,4R)-1-[(2S)-2-[2-(2-[2-[([[4-(2-[[3-amino-6-(2-hydroxyphenyl)pyridazin-4-yl]oxy]ethyl)phenyl]methyl]carbamoyl)methoxy]ethoxy]ethoxy)acetamido]-3,3-dimethylbutanoyl]-4-hydroxy-N-[[4-(4-methyl-1,3-thiazol-5-yl)phenyl]methyl]pyrrolidine-2-carboxamide], on HiBiT-BRM, the “BRM HiBit Degradation Maximum (%)” value is “B (“B” indicates maximum degradation ≥50%)” and the DC50 is above 1 µM. In addition, at HiBit-BRG1, the DC50 is above 1 µM and the Dmax was below 50%.
Turning to `Nc1nnc(-c2ccccc2O)cc1OCCc1ccc(CNC(=O)CCCCNc2ccc3c(c2)C(=O)N(C2CCC(=O)NC2=O)C3)cc1` (stereo not shown) [Compound 135, N-[[4-(2-[[3-amino-6-(2-hydroxyphenyl)pyridazin-4-yl]oxy]ethyl)phenyl]methyl]-5-[[2-(2,6-dioxopiperidin-3-yl)-3-oxo-1H-isoindol-5-yl]amino]pentanamide], at HiBiT-BRM, the “BRM HiBit Degradation Maximum (%)” value was “C (“C” indicates maximum degradation <50%)” and the DC50 was above 1 µM. For the same compound, at HiBit-BRG1, the DC50 is above 1 µM and the Dmax is below 50%.
`Nc1nnc(-c2ccccc2O)cc1OCCc1ccc(C(=O)NCCCCC(=O)NCc2ccc(S(=O)(=O)Nc3cccc4c(Cl)c[nH]c34)cc2)cc1` [Compound 15, 4-(2-((3-amino-6-(2-hydroxyphenyl)pyridazin-4-yl)oxy)ethyl)-N-(5-((4-(N-(3-chloro-1H-indol-7-yl)sulfamoyl)benzyl)amino)-5-oxopentyl)benzamide]: on HiBiT-BRM, the “BRM HiBit Degradation Maximum (%)” value is given as “C (“C” indicates maximum degradation <50%)” and the DC50 is above 1 µM. On HiBit-BRG1, the DC50 was above 1 µM and the Dmax is below 50%.
Turning to `Cc1ncsc1-c1ccc([C@H](C)NC(=O)[C@@H]2C[C@@H](O)CN2C(=O)[C@@H](c2cc(OCCN3CCC(OC4CN(C(=O)c5ccc(CCOc6cc(-c7ccccc7O)nnc6N)cc5)C4)CC3)no2)C(C)C)cc1` [Compound 253, (2S,4R)-1-((R)-2-(3-(2-(4-((1-(4-(2-((3-amino-6-(2-hydroxyphenyl)pyridazin-4-yl)oxy)ethyl)benzoyl)azetidin-3-yl)oxy)piperidin-1-yl)ethoxy)isoxazol-5-yl)-3-methylbutanoyl)-4-hydroxy-N-((S)-1-(4-(4-methylthiazol-5-yl)phenyl)ethyl)pyrrolidine-2-carboxamide], at HiBiT-BRM, the “BRM HiBit Degradation Maximum (%)” value is on record as “A (“A” indicates maximum degradation ≥75%)” and the DC50 was below 0.01 µM. Besides, at HiBit-BRG1, the DC50 is above 1 µM and the Dmax is below 50%.
For the compound `Nc1nnc(-c2ccccc2O)cc1OCCc1ccc(CNC(=O)CCCCNc2cccc3c2C(=O)N(C2CCC(=O)NC2=O)C3=O)cc1` (stereo not shown) [Compound 4, N-[[4-(2-[[3-amino-6-(2-hydroxyphenyl)pyridazin-4-yl]oxy]ethyl)phenyl]methyl]-5-[[2-(2,6-dioxopiperidin-3-yl)-1,3-dioxoisoindol-4-yl]amino]pentanamide], on HiBiT-BRM, the “BRM HiBit Degradation Maximum (%)” value was “B (“B” indicates maximum degradation ≥50%)” and the DC50 is above 0.1 µM. At HiBit-BRG1, the DC50 was above 1 µM.
Take `Nc1nnc(-c2ccccc2O)cc1OCCc1ccc(CNC(=O)CCCCOc2cccc3c2C(=O)N(C2CCC(=O)NC2=O)C3)cc1` (stereo not shown) [Compound 152, N-(4-(2-((3-amino-6-(2-hydroxyphenyl)pyridazin-4-yl)oxy)ethyl)benzyl)-5-((2-(2,6-dioxopiperidin-3-yl)-3-oxoisoindolin-4-yl)oxy)pentanamide]: on HiBiT-BRM, the “BRM HiBit Degradation Maximum (%)” value is “A (“A” indicates maximum degradation ≥75%)” and the DC50 is above 0.1 µM. Further, on HiBit-BRG1, the DC50 is above 1 µM and the Dmax is below 50%.
`Cc1ncsc1-c1ccc([C@H](C)NC(=O)[C@@H]2C[C@@H](O)CN2C(=O)[C@@H](NC(=O)CCCCCCCCCCC(=O)NCc2ccc(CCOc3cc(-c4ccccc4O)nnc3N)cc2)C(C)(C)C)cc1` [Compound 247, N1-(4-(2-((3-amino-6-(2-hydroxyphenyl)pyridazin-4-yl)oxy)ethyl)benzyl)-N12-((S)-1-((2S,4R)-4-hydroxy-2-(((S)-1-(4-(4-methylthiazol-5-yl)phenyl)ethyl)carbamoyl)pyrrolidin-1-yl)-3,3-dimethyl-1-oxobutan-2-yl)dodecanediamide]: at HiBiT-BRM, the “BRM HiBit Degradation Maximum (%)” value is given as “A (“A” indicates maximum degradation ≥75%)” and the DC50 was above 0.01 µM. On HiBit-BRG1, the DC50 was above 1 µM and the Dmax is below 50%.
